Like-named read-outs stand apart in the source and are kept apart here. [OPent] = 2'-O-pentyl ribonucleoside; d = 2'-deoxy (DNA)
Assays:
PKC-α mRNA = experiment: Northern blot analysis of PKC-α mRNA levels; type: cell-based, human; settings: result in words
Method: Oligonucleotides having SEQ ID NO:4 were synthesized as uniformly phosphorothioate chimeric oligonucleotides having a centered deoxy gap of varying lengths flanked by 2′-O-methylated regions. These oligonucleotides (500 nM concentration) were tested for effects on PKC-A mRNA levels by Northern blot analysis.
Additional phosphorothioate oligonucleotides targeted to the human PKC-α 3′ untranslated region were designed and synthesized.

[1] = tested on: complementary RNA strand (the sense strand); experiment: Thermal melting analysis of 2′-deoxy-2′-fluoro modified oligonucleotides (hybridization thermodynamics); type: binding
ras mRNA = experiment: Northern blot analysis of ras expression in T24 cells; type: cell-based, human
Method: The human urinary bladder cancer cell line T24 was obtained from the American Type Culture Collection (Rockville Md.). Cells were grown in McCoy's 5A medium with L-glutamine (GIBCO-BRL, Gaithersburg, Md.), supplemented with 10% heat-inactivated fetal calf serum and 50 U/ml each of penicillin and streptomycin. Cells were seeded on 100 mm plates. When they reached 70% confluency, they were treated with oligonucleotide. Plates were washed with 10 ml prewarmed PBS and 5 ml of OptiMEM (GIBCO) reduced-serum medium containing 2.5 μl DOTMA. Oligonucleotide was then added to the desired concentration. After 4 hours of treatment, the medium was replaced with McCoy's medium. Cells were harvested 48 hours after oligonucleotide treatment and RNA was isolated using a standard CsCl purification method. [Kingston in Current Protocols in Molecular Biology, F. M. Ausubel, R. Brent, R. E. Kingston, D. D. Moore, J. A. Smith, J. G. Seidman and K. Strahl, Eds., John Wiley and Sons, New York.] The human epithelioid carcinoma cell line HeLa 229 was obtained from the American Type Culture Collection (Bethesda, Md.). HeLa cells were maintained as monolayers on 6-well plates in Dulbecco's Modified Eagle's medium (DMEM) supplemented with 10% fetal bovine serum and 100 U/ml penicillin. Treatment with oligonucleotide and isolation of RNA were essentially as described above for T24 cells.
Northern hybridization: 10 μg of each RNA was electrophoresed on a 1.2% agarose/formaldehyde gel and transferred overnight to GeneBind 45 nylon membrane (Pharmacia LKB, Piscataway, N.J.) using standard methods. [Kingston in Current Protocols in Molecular Biology, F. M. Ausubel, R. Brent, R. E. Kingston, D. D. Moore, J. A. Smith, J. G. Seidman and K. Strahl, Eds., John Wiley and Sons, New York.] RNA was UV-crosslinked to the membrane. Double-stranded ^32P-labeled probes were synthesized using the Prime a Gene labeling kit (Promega, Madison Wis.). The ras probe was a SalI-NheI fragment of a cDNA clone of the activated (mutant) H-ras mRNA having a GGC-to-GTC mutation at codon-12. The control probe was G3PDH. Blots were prehybridized for 15 minutes at 68° C. with the QuickHyb hybridization solution (Stratagene, La Jolla, Calif.). The heat-denatured radioactive probe (2.5×10^6 counts/2 ml hybridization solution) mixed with 100 μl of 10 mg/ml salmon sperm DNA was added and the membrane was hybridized for 1 hour at 68° C. The blots were washed twice for 15 minutes at room temperature in 2×SSC/0.1% SDS and once for 30 minutes at 60° C. with 0.1×SSC/0.1% SDS. Blots were autoradiographed and the intensity of signal was quantitated using an ImageQuant PhosphorImager (Molecular Dynamics, Sunnyvale, Calif.). Northern blots were first hybridized with the ras probe, then stripped by boiling for 15 minutes in 0.1×SSC/0.1% SDS and rehybridized with the control G3PDH probe to check for correct sample loading.

[2] = tested on: ras-luciferase (codon-12 point mutation of activated H-ras); experiment: ras-luciferase reporter gene system; type: cell-based, human; settings: for inhibition of ras-luciferase activity: cells expressing the mutant form of ras-luciferase, dose response, FIGS. 1 and 2; for effect on ras expression: chimeric backbone-modified oligonucleotides, result in words
[3] = tested on: 25mer oligoribonucleotide complement; experiment: Melting curves with 25mer oligoribonucleotide complement; type: binding; settings: 17mer hybridized with 25mer oligoribonucleotide complement
Text: Other sugar modifications: The effects of other 2′ sugar modifications besides 2′-O-methyl on antisense activity in chimeric oligonucleotides have been examined. These modifications are listed in Table 4, along with the Tm values obtained when 17mer oligonucleotides having 2′-modified nucleotides flanking a 7-base deoxy gap were hybridized with a 25mer oligoribonucleotide complement as described in Example 25. […] As alkyl length increased, Tm decreased.
Absorbance vs. temperature curves were measured at 260 nm using a Gilford 260 spectrophotometer interfaced to an IBM PC computer and a Gilford Response II spectrophotometer. The buffer contained 100 mM Na^+, 10 mM phosphate and 0.1 mM EDTA, pH 7. Oligonucleotide concentration was 4 μM each strand determined from the absorbance at 85° C. and extinction coefficients calculated according to Puglisi and Tinoco [Methods in Enzymol., 180, 304 (1989). Tm values, free energies of duplex formation and association constants were obtained from fits of data to a two state model with linear sloping baselines. [Petersheim and Turner, Biochemistry, 22, 256 (1983). Reported parameters are averages of at least three experiments. For some oligonucleotides, free energies of duplex formation were also obtained from plots of Tm^−1 vs log10 (concentration). Borer et al., J. Mol. Biol., 86, 843 (1974).

[4] = duplex with complementary RNA, first Tm column

AoAoAoAoCoGsTsCsAsGsCsCsAsTsGoGoToCoCoC (AAAACGTCAGCCATGGTCCC; linkages o5 s9 o5 (s phosphorothioate, o phosphodiester), sugars by position and methylation of C not given here; further chemistry not fully specified) [Oligonucleotide 7273]
effect on PKC-α mRNA levels (PKC-α mRNA): more active than their 2′-β-methyl counterparts

AsAoAoAoCoGsTsCsAsGsCsCsAsTsGoGoToCoCsC (AAAACGTCAGCCATGGTCCC; linkages s1 o4 s9 o4 s1 (s phosphorothioate, o phosphodiester), sugars by position and methylation of C not given here; further chemistry not fully specified) [Oligonucleotide 7008]
effect on PKC-α mRNA levels (PKC-α mRNA; listed as 7008): reduction of PKC-α mRNA

AsAoAoAoCoGsTsCsAsGsCsCsAsTsGoGoToCoCsC (AAAACGTCAGCCATGGTCCC; linkages s1 o4 s9 o4 s1 (s phosphorothioate, o phosphodiester), sugars by position and methylation of C not given here; further chemistry not fully specified) [Oligonucleotide 7294]
effect on PKC-α mRNA levels (PKC-α mRNA; listed as 7294): more active than their 2′-β-methyl counterparts

AsAsAsAsCsGsTsCsAsGsCsCsAsTsGsGsTsCsCsC (AAAACGTCAGCCATGGTCCC; all phosphorothioate, sugars by position and methylation of C not given here; further chemistry not fully specified) [Oligonucleotide 5352]
effect on PKC-α mRNA levels (PKC-α mRNA): most active

AsAsAsAsCsGsTsCsAsGsCsCsAsTsGsGsTsCsCsC (AAAACGTCAGCCATGGTCCC; listed as DNA, chemistry not fully specified) [Oligonucleotide 3522, reference compound]
effect on PKC-α mRNA levels (PKC-α mRNA): reduction of PKC-α mRNA

CTC GTA CCT TCC GGT CC: unmodified phosphodiester, SEQ ID NO: 22 (CTCGTACCTTCCGGTCC; unmodified DNA)
Tm [1, 4]: 61.6 °C

CTTATATTCCGTCATCGCTC (chemistry not given here) [Compound 2502, phosphorothioate oligonucleotide complementary to the ras AUG region, 20 deoxy, reference compound]
inhibition of ras expression / decrease of ras mRNA (ras mRNA): 26%

CTTATATTCCGTCATCGCTC (chemistry not given here) [Oligonucleotide 4998, chimeric phosphorothioate, 7-base deoxy gap flanked by 2′-O-methyl regions, AUG target]
inhibition of ras expression / decrease of ras mRNA (ras mRNA; listed as 4998): 84%

CUC GUA CCU UCC GGU CC: SEQ ID NO: 28; adenosine, thymidine and cytidine nucleotides modified to contain 2′-deoxy-2′-fluoro substituents (CUCGUACCUUCCGGUCC; 2'-fluoro on A, U/T, C, G sugar and linkages not given here, further chemistry not given here)
Tm [1, 4]: 81.6 °C

C^MC^MA^M C^MA^MC^M C^MG^MAd C^MG^MG^M C^MG^MC^M C^MC^M [Oligonucleotide 3975]
inhibition of ras-luciferase activity [2]: neither of the oligonucleotides having either the one or the three 2′-deoxy-erythro-pentofuranosyl nucleotide subsequences showed significant activity

C^MC^MA^M C^MA^MC^M C^MGdAd CdG^MG^M C^MG^MC^M C^MC^M [Oligonucleotide 3979]
inhibition of ras-luciferase activity [2]: measurable activity for the three nucleotide subsequence oligonucleotide 3979 at the highest concentration dose

C^MC^MA^M C^MA^MC^M CdGdAd CdGdG^M C^MG^MC^M C^MC^M [Oligonucleotide 3980]
inhibition of ras-luciferase activity [2]: next greatest inhibition
inhibition of ras expression / decrease of ras mRNA (ras mRNA): 61%

C^MC^MA^M C^MAdCd CdGdAd CdGdGd CdG^MC^M C^MC^M [Oligonucleotide 3984]
inhibition of ras-luciferase activity [2]: greater inhibition of ras-luciferase activity than did oligonucleotide 2570
inhibition of ras expression / decrease of ras mRNA (ras mRNA): 81%

CsCsAsCoAoCoCoGoAoCoGoGoCoGsCsCsC [ISIS 4241]
effect on ras expression [2]: completely inactive

CsCsAsCsAsCsCsGsAoCsGsGsCsGsCsCsC [ISIS 4248]
effect on ras expression [2]: just as active as a full P═S molecule

O-Pentyl: 17-mer CCACACCGACGGCGCCC (SEQ ID NO: 1), 2′-O-pentyl nucleotides flanking a 7-base deoxy gap (sugars from the 5' end [OPent]5 d7 [OPent]5, backbone and methylation of C not given here)
Tm [3]: 68.5 °C

TCCGTCATCGCTCCTCAGGG [Oligonucleotide 5122]
inhibition of ras expression / decrease of ras mRNA (ras mRNA; listed as 5122): 15%

TsCsTs CsGsCs TsGsGs TsGsAs GsTsTs TsC (TCTCGCTGGTGAGTTTC; all phosphorothioate, sugars by position and methylation of C not given here; further chemistry not fully specified) [Oligonucleotide 7082]
effect on PKC-α mRNA levels (PKC-α mRNA): most active

TsTsCs TsCsGs CsTsGs GsTsGs AsGsTs TsTsC (TTCTCGCTGGTGAGTTTC; all phosphorothioate, sugars by position and methylation of C not given here; further chemistry not fully specified) [Oligonucleotide 6632]
effect on PKC-α mRNA levels (PKC-α mRNA): most active

oligonucleotide with the 2′-O-propyl diester flanking regions: SEQ ID NO:1, phosphorothioate backbone in the 7-base deoxy gap only, phosphodiester 2′-O-propyl flanking regions (CCACACCGACGGCGCCC; 2'-O-propyl phosphodiester flanks, 7-deoxy phosphorothioate gap, exact positions not given here)
effect on ras expression [2]: able to inhibit ras expression

ps(CGA CTA TGC AAG TAC)
Tm ([1]; change in Tm relative to the unmodified oligonucleotide): −11.2 °C
Tm [1, 4]: 33.9 °C

ps(CGA CUA UGC AAG UAC)
Tm [1, 4]: 60.9 °C

Reference: patent US20080032945A1, “2'-MODIFIED OLIGONUCLEOTIDES” (Isis Pharmaceuticals, Inc., priority 1992, published 2008)
